Measurements published in patent US20260317332A1, “BICYCLIC HETEROCYCLE COMPOUNDS FOR THE TREATMENT OF CANCER” (Hoffmann-La Roche Inc., priority 2023, published 2026).

What was measured:
[1] = target: T1, CD73 (Homo sapiens, UniProt P21589); assay: CD73 Cellular Assay; assay type: cell-based; set-up: 40 μL of MDA-MB-231 cells (ATCC, HTB-26, breast cancer); host or cells: MDA-MB-231; settings: MDA-MB-231 cells; 200 μM AMP working solution; 45 min at 37° C.; malachite readout; read-out: Cellular IC50 against CD73
T1 sequence (P21589 27-574): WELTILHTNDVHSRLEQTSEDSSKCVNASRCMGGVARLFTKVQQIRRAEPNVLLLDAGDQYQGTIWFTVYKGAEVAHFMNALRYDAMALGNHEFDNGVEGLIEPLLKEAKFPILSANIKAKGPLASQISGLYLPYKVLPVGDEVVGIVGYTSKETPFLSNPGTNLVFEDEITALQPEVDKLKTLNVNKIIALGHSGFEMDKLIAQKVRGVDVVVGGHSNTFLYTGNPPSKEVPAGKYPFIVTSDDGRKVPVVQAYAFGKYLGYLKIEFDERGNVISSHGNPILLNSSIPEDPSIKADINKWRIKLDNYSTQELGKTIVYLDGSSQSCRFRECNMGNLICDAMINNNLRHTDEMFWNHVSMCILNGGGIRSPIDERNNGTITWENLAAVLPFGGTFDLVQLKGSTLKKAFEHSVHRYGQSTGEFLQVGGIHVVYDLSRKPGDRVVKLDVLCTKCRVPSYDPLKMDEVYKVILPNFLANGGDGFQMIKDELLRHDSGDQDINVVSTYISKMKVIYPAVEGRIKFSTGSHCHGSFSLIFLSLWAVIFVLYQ
Description: Compound serial dilution (1:3) was prepared with Echo 555 liquid handler (Labcyte) into the corresponding wells of a 384-well plate. 40 μL of MDA-MB-231 cells (ATCC, HTB-26, breast cancer, final concentration at 20,000 cells/mL) suspended in assay buffer (20 mM HEPES pH 7.4, 137 mM NaCl, 5.4 mM KCl, 1.3 mM CaCl2, 4.2 mM NaHCO3, 1 mg/mL glucose) were added into the corresponding wells of the plate. After incubating with compounds for 30 minutes, 40 μL of AMP working solution (200 μM AMP in assay buffer) was added into each well in the assay plate. The assay plate was then incubated in a 5% CO2 incubator (Thermo Fisher Scientific) at 37° C. for 45 min. After the reaction was completed, 50 μL of the supernatants was collected and transferred into a new 384 well plate. 10 μL of Malachite A was added to each well in the assay plate and incubated for 10 minutes. 10 μL of Malachite B was then added to each corresponding well of the plate and incubated for 30 minutes. Finally the absorbance value was read on the Envision plate reader at […]. Calculation percentage inhibition by using equation {% inhibition=100×[1−(X−MIN)/(MAX−MIN)]} where X equals to the well signal, Max equals signal of neutral control and MIN equals signal of inhibitor control.

[2] = target: T1, CD73; assay: Human CD73 Biochemical Assay; settings: 0.05 nM recombinant CD73; AMP 5.56 μM final; 10 min at room temperature; LC/MS adenosine readout; read-out: Enzymatic IC50 against human CD73
Description: The purpose of this assay is to identify and characterize inhibitors of human CD73 enzymatic activity. Compound serial dilution (1:3) was prepared with Echo 555 liquid handler (Labcyte) into the corresponding wells of a 384-well plate. 10 μL of enzyme working solution (containing 0.05 nM recombinant CD73 protein, 10 mM Tris pH 7.5, 100 mM NaCl, 0.01% BSA, 0.2 mM Octyl glucoside and 1 mM NaH2PO4) was added to the assay plate and incubated with compounds for 15 minutes at room temperature. After adding 15 μL of AMP working solution (Containing 10 mM Tris pH 7.5, 100 mM NaCl, 0.01% BSA, 0.2 mM Octyl glucoside, with 5.56 μM of AMP final concentration) and incubate for 10 min at room temperature. Stop the reaction by adding 75 μL of stop solution (5% TCA in H2O containing 250 nM 13C5-adenosine) to each well for 10 min incubation. After centrifugation, 75 μL of the mixture was transferred to a new 384-well plate for LC/MS analysis.
Samples from the 384-well plates, were loaded onto an autosampler deck, then injected with ADDA-LC-MS/MS. The aqueous mobile phase is 0.1% formic acid in water. The organic mobile phase is 0.1% formic acid in acetonitrile. Flow rate is maintained at 0.8 mL/minute using Shimadzu pumps. The column is ACE 5 Phenyl, 50×2.1 mm. The analysis was performed on a SCIEX triple quadrupole mass spectrometer operating in positive ion mode. The effluent from the HPLC column was directly introduced into the electrospray ionization (ESI). Multiple reaction monitoring (MRM) is used to determine analyte and internal standard (IS) responses. The MRM for adenosine is 268.1/136.1, for 13C5-Adenosine (IS) is 273.2/136.2. The data is calculated using the peak area ratio (PAR) semi-quantitative method.

Structure (SMILES) | IC50 [1] | IC50 [2]
C[C@@H](Nc1cc([C@@H](Oc2nn(C)c3nnc(-c4c[nH]c(=O)[nH]c4=O)cc23)C(F)F)ccn1)C(F)(F)F [Example 27, 5-[3-[(1R)-2,2-difluoro-1-[2-[[(1R)-2,2,2-trifluoro-1-methyl-ethyl]amino]-4-pyridyl]ethoxy]-1-methyl-pyrazolo[3,4-c]pyridazin-5-yl]-1H-pyrimidine-2,4-dione] | 0.48 nM | 0.04 nM
Cn1nc(O[C@H](c2cc(OCC(F)(F)F)c(F)cn2)C(F)F)c2cc(-c3c[nH]c(=O)[nH]c3=O)nnc21 [Example 9A, 5-[3-[(1R)-2,2-difluoro-1-[5-fluoro-4-(2,2,2-trifluoroethoxy)-2-pyridyl]ethoxy]-1-methyl-pyrazolo[3,4-c]pyridazin-5-yl]-1H-pyrimidine-2,4-dione] | 0.73 nM | 0.11 nM
Cn1nc(O[C@H](c2cc(OCC3(C(F)(F)F)CC3)ccn2)C(F)F)c2cc(-c3c[nH]c(=O)[nH]c3=O)nnc21 [Example 23, 5-[3-[(1R)-2,2-difluoro-1-[4-[[1-(trifluoromethyl)cyclopropyl]methoxy]-2-pyridyl]ethoxy]-1-methyl-pyrazolo[3,4-c]pyridazin-5-yl]-1H-pyrimidine-2,4-dione] | 0.74 nM | 0.08 nM
COCCOc1cc([C@@H](Oc2nn(C)c3nnc(-c4c[nH]c(=O)[nH]c4=O)cc23)C(F)F)ccc1F [Example 15, 5-[3-[(1R)-2,2-difluoro-1-[4-fluoro-3-(2-methoxyethoxy)phenyl]ethoxy]-1-methyl-pyrazolo[3,4-c]pyridazin-5-yl]-1H-pyrimidine-2,4-dione] | 0.88 nM | 0.07 nM
Cn1nc(O[C@H](c2ccnc(N3CCC(F)(F)CC3)c2)C(F)F)c2cc(-c3c[nH]c(=O)[nH]c3=O)nnc21 [Example 31, 5-[3-[(1R)-1-[2-(4,4-difluoro-1-piperidyl)-4-pyridyl]-2,2-difluoro-ethoxy]-1-methyl-pyrazolo[3,4-c]pyridazin-5-yl]-1H-pyrimidine-2,4-dione] | 0.55 nM | 0.05 nM
[2H]C([2H])([2H])C([2H])([2H])Oc1cc([C@@H](Oc2nn(C)c3nnc(-c4c[nH]c(=O)[nH]c4=O)cc23)C(F)F)ccn1 [Example 30, 5-[3-[(1R)-2,2-difluoro-1-[2-(1,1,2,2,2-pentadeuterioethoxy)-4-pyridyl]ethoxy]-1-methyl-pyrazolo[3,4-c]pyridazin-5-yl]-1H-pyrimidine-2,4-dione] | 0.6 nM | 0.05 nM
Cn1nc(O[C@H](c2cc(OCC(F)F)ccn2)C(F)F)c2cc(-c3c[nH]c(=O)[nH]c3=O)nnc21 [Example 7, 5-[3-[(1R)-1-[4-(2,2-difluoroethoxy)-2-pyridyl]-2,2-difluoro-ethoxy]-1-methyl-pyrazolo[3,4-c]pyridazin-5-yl]-1H-pyrimidine-2,4-dione] | 0.59 nM | 0.08 nM
C[C@H]1COC[C@@H]1Oc1cc([C@@H](Oc2nn(C)c3nnc(-c4c[nH]c(=O)[nH]c4=O)cc23)C(F)F)ccn1 (stereo in doubt) [Example 40, 5-[1-methyl-3-[(1R)-2,2-difluoro-1-[2-[(trans)-4-methyltetrahydrofuran-3-yl]oxy-4-pyridyl]ethoxy]pyrazolo[3,4-c]pyridazin-5-yl]-1H-pyrimidine-2,4-dione] | 0.57 nM | 0.05 nM
Cn1nc(O[C@H](c2ccc(F)c(OCC(F)(F)F)c2)C(F)F)c2cc(-c3c[nH]c(=O)[nH]c3=O)nnc21 [Example 3, 5-[3-[(1R)-2,2-difluoro-1-[4-fluoro-3-(2,2,2-trifluoroethoxy)phenyl]ethoxy]-1-methyl-pyrazolo[3,4-c]pyridazin-5-yl]-1H-pyrimidine-2,4-dione] | 0.91 nM | 0.17 nM
C[C@@H](OC1CC1)c1cc([C@@H](Oc2nn(C)c3nnc(-c4c[nH]c(=O)[nH]c4=O)cc23)C(F)F)ccn1 (single isomer, unassigned) [Example 37B] | 0.84 nM | 0.09 nM
Cn1nc(O[C@H](c2cc(COC(F)(F)F)ccn2)C(F)F)c2cc(-c3c[nH]c(=O)[nH]c3=O)nnc21 (single isomer, unassigned) [Example 36A] | 0.62 nM | 0.08 nM
Cn1nc(O[C@H](c2cc(OCC#N)ccn2)C(F)F)c2cc(-c3c[nH]c(=O)[nH]c3=O)nnc21 [Example 21, 2-[[2-[(1R)-1-[5-(2,4-dioxo-1H-pyrimidin-5-yl)-1-methyl-pyrazolo[3,4-c]pyridazin-3-yl]oxy-2,2-difluoro-ethyl]-4-pyridyl]oxy]acetonitrile] | 0.73 nM | 0.09 nM
C[C@H](Oc1nn(C)c2nnc(-c3c[nH]c(=O)[nH]c3=O)cc12)c1cc(OCC(F)(F)F)ncn1 (single isomer, unassigned) [Example 14A] | 1.04 nM | 0.09 nM
